system: fibrosarcoma cell line HT1080; assay: Ferroptosis screening model (MTT method), Erastin-induced ferroptosis; assay type: cell-based, human; details: HT1080, ferroptosis inducer Erastin, 72 h, average of three tests, read-out: EC50
Method: The screening model for ferroptosis mainly used MTT method. First, the fibrosarcoma cell line HT1080 was cultured in a dish, and the cells in the logarithmic growth phase were inoculated into a 96-well plate in a certain number (3000-10000 cells/well), 100 μL per well, and then the plate was put in an 5% CO2 incubator at 37° C., to allow the cells to adhere. After 24 h, 100 μL compound solution at a certain concentration prepared in the designated medium and ferroptosis inducer Erastin (with a final concentration of […]) were added, setting 3 replicate wells for each compound to ensure the accuracy of the results, and a negative control group, a positive control group (Fer-15 μM), a blank control group and a solvent control group were included. After addition of drugs, the plate was placed in an incubator and cultivated for 72 h. On the day of MTT experiment, MTT test solution (5 mg/mL MTT solution dissolved in physiological saline, and stored in the dark at 4° C.) was pre-prepared and 20 μL MTT solution was added to each well, then the plate was put in an incubator and continued to incubate for 2-4 h. After that, 50 μL of 20% SDS solution (dissolved in MiliiQ water, added with 1% concentrated hydrochloric acid) was added to each well and kept in an incubator overnight. On the next day, the absorbance at 570 nm was measured with a microplate reader, to calculate the inhibition rate of drugs on ferroptosis. Generally, the absorbance value of the control group should be in the range of 0.8-1.2 as a normal value.
GraphPadPrism5 software was used to fit the change curve of inhibition rate and calculate the EC50.

First: C=C(c1ccc(C(=O)N2CCOCC2)cc1)c1ccc2c(c1)Nc1ccccc1S2 [Compound B47, (4-(1-(10H-phenothiazin-2-yl)ethenyl)phenyl)(morpholine)ketone]
Second: C=C(c1cnc(N2CCOCC2)nc1)c1ccc2c(c1)Nc1ccccc1S2 [Compound B51, 4-(5-(1-(10H-phenothiazin-2-yl)ethenyl)pyrimidin-2-yl)morpholine]
The EC50 of the first is 2.4-fold higher: 0.024 µM for the first, 0.01 µM for the second. The second is the more potent here.

same assay, conditions: Homo sapiens, HT-1080, 72 h, HT1080, ferroptosis inducer Erastin, 72 h, average of three tests, read-out: EC50

Compared with `C=C(c1cccc(OC)c1)c1ccc2c(c1)Nc1ccccc1S2` [Compound B21, 2-(1-(3-methoxylphenyl)ethenyl)-10H-phenothiazine], `C=C(c1cccc(OC(C)C)c1)c1ccc2c(c1)Nc1ccccc1S2` [Compound B23, 2-(1-(3-isopropoxylphenyl)ethenyl)-10H-phenothiazine] is 4.4-fold higher in EC50: 0.011 µM for the first, 0.048 µM for the second. The first is the more potent here.

Compared with `C=C(c1cccc(OC(F)(F)F)c1)c1ccc2c(c1)Nc1ccccc1S2` [Compound B22, 2-(1-(3-trifluoromethoxylphenyl)ethenyl)-10H-phenothiazine], `C=C(c1cccc(C(F)(F)F)c1)c1ccc2c(c1)Nc1ccccc1S2` [Compound B30, 2-(1-(3-(trifluoromethyl)phenyl)ethenyl)-10H-phenothiazine] is 1.5-fold higher in EC50: 0.03 µM for the first, 0.045 µM for the second. The first is the more potent here.

`C=C(c1cccc(C)c1)c1ccc2c(c1)Nc1ccccc1S2` [Compound B24, 2-(1-(m-methylphenyl)ethenyl)-10H-phenothiazine] and `C=C(c1cccc(C(C)C)c1)c1ccc2c(c1)Nc1ccccc1S2` [Compound B27, 2-(1-(3-isopropylphenyl)ethenyl)-10H-phenothiazine] are within 1.5-fold of each other in EC50: 0.031 µM for the first, 0.038 µM for the second.

First: C=C(c1cccc(C(C)(C)C)c1)c1ccc2c(c1)Nc1ccccc1S2 [Compound B25, 2-(1-(3-t-butylphenyl)ethenyl)-10H-phenothiazine]
Second: C=C(c1cccc(S(=O)(=O)NC(C)(C)C)c1)c1ccc2c(c1)Nc1ccccc1S2 [Compound B53, 3-(1-(10H-phenothiazin-2-yl)ethenyl)-N-(t-butyl)Benzenesulfonamide]
The EC50 of the first is 9.2-fold lower: 0.016 µM for the first, 0.148 µM for the second. The first is the more potent here.

Going from `C=C(c1cccc(C(N)=O)c1)c1ccc2c(c1)Nc1ccccc1S2` [Compound B26, 3-(1-(10H-phenothiazin-2-yl)ethenyl)benzamide] to `C=C(c1cccc(C(=O)OC)c1)c1ccc2c(c1)Nc1ccccc1S2` [Compound B31, methyl 3-(1-(10H-phenothiazin-2-yl)ethenyl)benzoic acid], the EC50 rises from 0.016 µM to 0.051 µM (3.2-fold).

Compared with `C=C(c1cccc(C(=O)OCC)c1)c1ccc2c(c1)Nc1ccccc1S2` [Compound B28, ethyl3-(1-(10H-phenothiazin-2-yl)ethenyl)benzoic acid], `C=C(c1cccc(C#N)c1)c1ccc2c(c1)Nc1ccccc1S2` [Compound B32, 3-(1-(10H-phenothiazin-2-yl)ethenyl)benzonitrile] is 3.3-fold higher in EC50: 0.027 µM for the first, 0.089 µM for the second. The first is the more potent here.

First: C=C(c1cccc(-c2ccccc2)c1)c1ccc2c(c1)Nc1ccccc1S2 [Compound B29, 2-(1-([1,1′-diphenyl]-3-yl)ethenyl)-10H-phenothiazine]
Second: C=C(c1cccc(C(=O)c2ccccc2)c1)c1ccc2c(c1)Nc1ccccc1S2 [Compound B33, (3-(1-(10H-phenothiazin-2-yl)ethenyl)phenyl)benzophenone]
The EC50 of the first is 2.7-fold lower: 0.041 µM for the first, 0.111 µM for the second.

Compared with `C=C(c1cccc(C(F)F)c1)c1ccc2c(c1)Nc1ccccc1S2` [Compound B34, 2-(1-(3-(difluoromethyl)phenyl)ethenyl)-10H-phenothiazine], `C=C(c1ccc(C#N)c(F)c1)c1ccc2c(c1)Nc1ccccc1S2` [Compound B40, 4-(1-(10H-phenothiazin-2-yl)ethenyl)-2-fluorobenzonitrile] is 3.7-fold higher in EC50: 0.011 µM for the first, 0.041 µM for the second. The first is the more potent here.

Going from `C=C(c1cccc(OCc2ccccc2)c1)c1ccc2c(c1)Nc1ccccc1S2` [Compound B35, 2-(1-(3-(benzyloxyl)phenyl)ethenyl)-10H-phenothiazine] to `C=C(c1ccc(C#N)c(C)c1)c1ccc2c(c1)Nc1ccccc1S2` [Compound B37, 4-(1-(10H-phenothiazin-2-yl)ethenyl)-2-methylbenzonitrile], the EC50 falls from 0.053 µM to 0.014 µM (3.8-fold).

Going from `C=C(c1cccc(N2CCOCC2)c1)c1ccc2c(c1)Nc1ccccc1S2` [Compound B36, 4-(3-(1-(10H-phenothiazin-2-yl)ethenyl)phenyl)morpholine] to `C=C(c1ccc(N2CCOCC2)nc1)c1ccc2c(c1)Nc1ccccc1S2` [Compound B45, 4-(5-(1-(10H-phenothiazin-2-yl)ethenyl)pyridin-2-yl)morpholine], the EC50 falls from 0.03 µM to 0.013 µM (2.3-fold). The second is the more potent here.

First: C=C(c1ccc([N+](=O)[O-])c(C)c1)c1ccc2c(c1)Nc1ccccc1S2 [Compound B38, 2-(1-(3-methyl-4-nitrophenyl)ethenyl)-10H-phenothiazine]
Second: C=C(c1ccc2c(c1)Nc1ccccc1S2)c1ccc(OC)c(OC)c1 [Compound B39, 2-(1-(3,4-dimethoxylphenyl)ethenyl)-10H-phenothiazine]
The EC50 of the first is 1.5-fold higher: 0.035 µM for the first, 0.023 µM for the second. The second is the more potent here.

Going from `C=C(c1cc(C(C)(C)C)cc(C(C)(C)C)c1)c1ccc2c(c1)Nc1ccccc1S2` [Compound B41, 2-(1-(3,5-di-t-butylphenyl)ethenyl)-10H-phenothiazine] to `C=C(c1ccc(N)nc1)c1ccc2c(c1)Nc1ccccc1S2` [Compound B44, 5-(1-(10H-phenothiazin-2-yl)ethenyl)pyridin-2-amine], the EC50 falls from 0.905 µM to 0.011 µM (82-fold).

Compared with `C=C(c1ccc(NC(C)=O)nc1)c1ccc2c(c1)Nc1ccccc1S2` [Compound B43, N-(5-(1-(10H-phenothiazin-2-yl)ethenyl)pyridin-2-yl)acetylamine], `C=C(c1ccc(S(=O)(=O)NC2CCC2)cc1)c1ccc2c(c1)Nc1ccccc1S2` [Compound B58, 4-(1-(10H-phenothiazin-2-yl)ethenyl)-N-cyclobutylbenzenesulfonamide] is 16-fold higher in EC50: 0.004 µM for the first, 0.066 µM for the second.

`C=C(c1ccc2c(c1)Nc1ccccc1S2)c1ccc(C(=O)Nc2ccc(CN3CCN(C)CC3)c(C(F)(F)F)c2)cc1C` [Compound B46, 4-(1-(10H-phenothiazin-2-yl)ethenyl)-3-methyl-N-(4-((4-methylpiperazin-1-yl)methyl)-3-(trifluoromethyl)phenyl)benzamide] and `C=C(c1ccc(C(=O)N2CCN(C)CC2)cc1)c1ccc2c(c1)Nc1ccccc1S2` [Compound B48, (4-(1-(10H-phenothiazin-2-yl)ethenyl)phenyl)(4-methylpiperazin-1-yl)ketone] are within 1.5-fold of each other in EC50: 0.01 µM for the first, 0.013 µM for the second.

Compared with `C=C(c1cnc(N2CCN(C)CC2)nc1)c1ccc2c(c1)Nc1ccccc1S2` [Compound B49, 2-(1-(2-(4-methylpiperazin-1-yl)pyrimidin-5-yl)ethenyl)-10H-phenothiazine], `C=C(c1cnc(N2CCCN(C)CC2)nc1)c1ccc2c(c1)Nc1ccccc1S2` [Compound B50, 2-(1-(2-(4-methyl-1,4-homopiperazin-1-yl)pyrimidin-5-yl)ethenyl)-10H-phenothiazine] is 2-fold higher in EC50: 0.002 µM for the first, 0.004 µM for the second. The first is the more potent here.

`C=C(c1ccc(S(=O)(=O)NC2CCOCC2)cc1)c1ccc2c(c1)Nc1ccccc1S2` [Compound B52, 4-(1-(10H-phenothiazin-2-yl)ethenyl)-N-(tetrahydro-2H-pyran-4-yl)benzenesulfonamide] and `C=C(c1cccc(S(=O)(=O)NC2CCOCC2)c1)c1ccc2c(c1)Nc1ccccc1S2` [Compound B55, 3-(1-(10H-phenothiazin-2-yl)ethenyl)-N-(tetrahydro-2H-pyran-4-yl)benzenesulfonamide] are within 1.5-fold of each other in EC50: 0.011 µM for the first, 0.012 µM for the second.

`C=C(c1ccc(S(=O)(=O)N2CCCC2)cc1)c1ccc2c(c1)Nc1ccccc1S2` [Compound B54, 2-(1-(4-(pyrrolin-1-ylsulfonyl)phenyl)ethenyl)-10H-phenothiazine] and `C=C(c1ccc(S(=O)(=O)N2CCOCC2)cc1)c1ccc2c(c1)Nc1ccccc1S2` [Compound B57, 4-((4-(1-(10H-phenothiazin-2-yl)ethenyl)phenyl)sulfonyl)morpholine] are within 1.5-fold of each other in EC50: 0.032 µM for the first, 0.034 µM for the second.

Compared with `C=C(c1ccc(S(=O)(=O)NCC2CCOCC2)cc1)c1ccc2c(c1)Nc1ccccc1S2` [Compound B56, 4-(1-(10H-phenothiazin-2-yl)ethenyl)-N-((tetrahydro-2H-pyran-4-yl)methyl)Benzenesulfonamide], `C=C(c1ccc(S(=O)(=O)NC2CCN(C)CC2)cc1)c1ccc2c(c1)Nc1ccccc1S2` [Compound B59, 4-(1-(10H-phenothiazin-2-yl)ethenyl)-N-(1-methylpiperidin-4-yl)Benzenesulfonamide] is 110-fold lower in EC50: 0.022 µM for the first, 0.0002 µM for the second. The second is the more potent here.

Compared with `CC(c1ccc2c(c1)Nc1ccccc1S2)S(=O)(=O)N1CCOCC1` (stereo not drawn) [Compound C1, 4-((1-(10H-phenothiazin-2-yl)ethyl)sulfonyl)morpholine], `CC(c1ccc2c(c1)Nc1ccccc1S2)S(=O)(=O)N1CCN(C)CC1` (stereo not drawn) [Compound C2, 2-(1-((4-methylpiperazin-1-yl)sulfonyl)ethyl)-10H-phenothiazine] is 2-fold lower in EC50: 0.068 µM for the first, 0.034 µM for the second. The second is the more potent here.

In the case of `CC(c1ccc2c(c1)Nc1ccccc1S2)S(=O)(=O)N1CCCN(C)CC1` (stereo not drawn) [Compound C3, 2-(1-((4-methyl-1,4-homopiperazin-1-yl)sulfonyl)ethyl)-10H-phenothiazine], the EC50 is reported as 0.009 µM.

same assay, conditions: Homo sapiens, HT-1080, HT1080, ferroptosis inducer Erastin, 72 h, average of three tests, read-out: EC50

`C=C(c1ccc2c(c1)Nc1ccccc1S2)c1cc(OC)c(OC)c(OC)c1` [Compound B42, 2-(1-(3,4,5-trimethoxylphenyl)ethenyl)-10H-phenothiazine] gave an EC50 of 0.045 µM.

Source: patent US11440909B2, “10H-phenothiazine ferroptosis inhibitor as well as the preparative method and the use thereof” (CHENGDU HENGHAO INVESTMENT CO. LIMITED, priority 2018, dated 2022)
